Results published in patent publication US4673436A, “N, S containing corrosion inhibitors” (Exxon Chemical Patents Inc., priority 1986, dated 1987).

Columns and labels:
[1] = Corrosion wheel test, sweet (50-50 3% NaCl brine - Mentor, saturated CO2 only), Tables III, VI, VII; conditions: for corrosion protection / performance (in words): CO2 only corrosive environment; for % Protection @ 2 ppm / % Protection @ 8 ppm / % Protection @ 128 ppm / % Protection @ 4 ppm / % Protection @ 32 ppm: 160° F., 24 hours, saturated CO2 only
[2] = Corrosion wheel test, sweet-sour, all water system (3% NaCl brine, saturated CO2 + 100 ppm H2S), Table I; conditions: 160° F., 24 hours, 3% NaCl brine only
Method: (§1) Twelve quaternary ammonium salts according to the present invention, were tested under four standard sets of corrosion wheel test conditions. These include a sweet-sour test in an all water system under a range of concentrations from 4-256 ppm (TABLE I). Tests 2 and 3 were run under sweet (TABLE III), and sour conditions (TABLE II) at low (4 ppm) and high (256 ppm) concentrations only. A film persistency test (TABLE IV) was also run for completeness of the screening sequence; however, it was not expected that these water soluble compounds would perform well under these test conditions. Due to the low solubility of some C18 derivatives, 20% activity was adopted as a standard, with the C18 compounds being submitted at 10% activity and added at double concentration to the test fluids. […] Compounds are generally water and low brine soluble, hydrocarbon dispersible with some C18 derivatives being soluble in both fresh water and hydrocarbon.
Blank weight loss: 40 ± 0.9 mg
(§2) Fluids: 3% NaCl brine only
(§3) Saturated CO2 + 100 ppm H2 S
(§4) Duplicates w/ triplicate blanks

[3] = Corrosion wheel test, sour (3% NaCl brine, saturated N2 + 500 ppm H2S), Table II; conditions: 160° F., 24 hours, 3% NaCl brine only
Method: as §1
Blank weight loss: 55.8 ± 1.0 mg
as §2
Saturated N2 + 500 ppm H2 S
Duplicates and triplicate blanks

[4] = Corrosion wheel test, sweet (50-50 3% NaCl brine - Mentor, saturated CO2 only), Tables III, VI, VII; conditions: Table III, 160° F., 24 hours
Method: Twelve quaternary ammonium salts according to the present invention, were tested under four standard sets of corrosion wheel test conditions. These include a sweet-sour test in an all water system under a range of concentrations from 4-256 ppm (TABLE I). Tests 2 and 3 were run under sweet (TABLE III), and sour conditions (TABLE II) at low (4 ppm) and high (256 ppm) concentrations only.
(§5) Fluids: 50-50 3% NaCl brine - Mentor
as §4
Fluids: 50-50 - 3% NaCl brine - Mentor

[5] = Film persistent corrosion wheel test (50-50 3% NaCl brine - Mentor, saturated CO2 + 100 ppm H2S), Table IV; conditions: 160° F., film 1 hr, rinse 1 hr, run 24 hrs, single data points
Method: as §1
Blank weight loss: 58.3 ± 3.3 mg
Film 1 hr, Rinse 1 hr, Run 24 hrs.
as §5, §3
Single data points with triplicate blanks

[6] = Inhibitor solubility test, Table V; assay type: physicochemical; conditions: 20% active inhibitor added at 0.5% by volume; observed initially and after 24 hours
[7] = Table VII, thiol addition comparison

| SMILES | Solubility in 5% NaCl brine [6] | Solubility in aromatic naphtha [6] | Solubility in distilled water [6] | Solubility in kerosene [6] | % Protection @ 2 ppm [1, 7] [%] | % Protection @ 8 ppm [1, 7] [%] | % Protection @ 4 ppm [2] [%] | % Protection @ 8 ppm [2] [%] | % Protection @ 16 ppm [2] [%] | % Protection @ 256 ppm [2] [%] | % Protection @ 4 ppm [3] [%] | % Protection @ 256 ppm [3] [%] | % Protection @ 4 ppm [4] [%] | % Protection @ 256 ppm [4] [%] | % Protection @ 10,000 ppm [5] [%] | % Protection @ 2 ppm ([1]; Table VI confirmatory test) [%] | % Protection @ 4 ppm ([1]; Table VI confirmatory test) [%] | % Protection @ 8 ppm ([1]; Table VI confirmatory test) [%] | % Protection @ 32 ppm ([1]; Table VI confirmatory test) [%] | % Protection @ 128 ppm ([1]; Table VI confirmatory test) [%] | further results |
| --- | --- | --- | --- | --- | --- | --- | --- | --- | --- | --- | --- | --- | --- | --- | --- | --- | --- | --- | --- | --- | --- |
| CCCCCCCCCC[N+](C)(C)C [C10 H21 NMe3 I, reference compound] | – | – | – | – | 0 | 4 | – | – | – | – | – | – | – | – | – | – | – | – | – | – | corrosion protection / performance (in words) ([1]; Table VII): too short an alkyl chain length to function effectively as a corrosion inhibitor; % Protection @ 128 ppm [1, 7]: 3% |
| CCCCCCCCCCCCS [C12 H25 SH, dodecane thiol, reference compound] | – | – | – | – | 4 | 7 | – | – | – | – | – | – | – | – | – | – | – | – | – | – | corrosion protection / performance (in words) ([1]; Table VII): neither did dodecene thiol alone give any corrosion protection; % Protection @ 128 ppm [1, 7]: 0% |
| CCCCCCCCCCCC[N+](C)(C)CCCS [Compound 5] | sol | disp | sol | disp | – | – | 30 | 59 | 67 | 76 | 17 | 77 | 82 | 85 | 25 | 45 | 63 | 79 | 80 | 78 | – |
| CCCCCCCCCCCCSCC[N+](C)(C)C [Compound 8] | sol | disp | sol | disp | – | – | 7 | 13 | 23 | 81 | 3 | 78 | 14 | 76 | 19 | 9 | 19 | 18 | 62 | 82 | – |
| CCCCCCCCCCCCSCCC[N+](C)(C)C [Compound 11] | sol | disp | sol | disp | – | – | 21 | 27 | 35 | 79 | 15 | 80 | 60 | 84 | 20 | – | – | – | – | – | – |
| CCCCCCCCCCCCCCCCCCSCCC[N+](C)(C)C [Compound 12] | insol | sol | sol | disp | – | – | 49 | 56 | 57 | 69 | 14 | 81 | 50 | 83 | 14 | – | – | – | – | – | – |

The next lines start with results.

| Solubility in 5% NaCl brine [6] | Solubility in aromatic naphtha [6] | Solubility in distilled water [6] | Solubility in kerosene [6] | SMILES | % Protection @ 2 ppm [1, 7] [%] | % Protection @ 8 ppm [1, 7] [%] | % Protection @ 4 ppm [2] [%] | % Protection @ 8 ppm [2] [%] | % Protection @ 16 ppm [2] [%] | % Protection @ 256 ppm [2] [%] | % Protection @ 4 ppm [3] [%] | % Protection @ 256 ppm [3] [%] | % Protection @ 4 ppm [4] [%] | % Protection @ 256 ppm [4] [%] | % Protection @ 10,000 ppm [5] [%] | % Protection @ 2 ppm ([1]; Table VI confirmatory test) [%] | % Protection @ 4 ppm ([1]; Table VI confirmatory test) [%] | % Protection @ 8 ppm ([1]; Table VI confirmatory test) [%] | % Protection @ 32 ppm ([1]; Table VI confirmatory test) [%] | % Protection @ 128 ppm ([1]; Table VI confirmatory test) [%] | further results |
| --- | --- | --- | --- | --- | --- | --- | --- | --- | --- | --- | --- | --- | --- | --- | --- | --- | --- | --- | --- | --- | --- |
| disp | disp | sol | disp | CCCCCCCCCCCC[N+](C)(C)CCS [Compound 2] | 23 | 72 | 35 | 44 | 67 | 77 | 23 | 79 | 56 | 81 | 64 | 13 | 42 | 69 | 82 | 80 | % Protection @ 128 ppm [1, 7]: 84% |
| disp | sol | sol | sol | CCCCCCCCCCCCCCCCCC[N+](C)(C)CCS [Compound 3] | – | – | 31 | 41 | 58 | 60 | 11 | 83 | 62 | 92 | 53 | 18 | 18 | 76 | 79 | 81 | – |
| disp | disp | sol | disp | CCCCCCCC[N+](C)(C)CCCS [Compound 4] | 62 | 86 | 32 | 55 | 66 | 76 | 3 | 81 | 83 | 86 | 14 | 41 | 63 | 82 | 80 | 78 | % Protection @ 128 ppm [1, 7]: 85% |
| insol | disp | sol | disp | CCCCCCCCCCCCCCCCCC[N+](C)(C)CCCS [Compound 6] | – | – | 11 | 26 | 59 | 75 | 14 | 71 | 83 | – | 71 | 30 | 74 | 75 | 80 | 85 | – |
| sol | disp | sol | disp | CCCCCCCCSCC[N+](C)(C)C [Compound 7] | – | – | 15 | 17 | 11 | 31 | 7 | 72 | 29 | 65 | 11 | – | – | – | – | – | – |
| insol | disp | disp | disp | CCCCCCCCCCCCCCCCCCSCC[N+](C)(C)C [Compound 9] | – | – | 26 | 33 | 52 | 66 | 6 | 75 | 38 | 84 | 17 | – | – | – | – | – | – |
| sol | disp | sol | disp | CCCCCCCCSCCC[N+](C)(C)C [Compound 10] | – | – | 18 | 23 | 24 | 50 | 12 | 75 | 81 | – | 8 | 10 | 12 | 20 | 25 | 51 | – |
